Measurements from PubChem BioAssay (NCI).
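At the GI50, growth is halved. TGI denotes the concentration required for complete inhibition of growth.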

What was measured:
Test in all cases: NCI tumour cell line growth inhibition, 384-well format
NCI/ADR-RES ovarian = test system: NCI/ADR-RES ovarian
HS 578T breast = test system: HS 578T breast
T-47D breast = test system: T-47D breast
RXF 393 renal = test system: RXF 393 renal
COLO 205 colon = test system: COLO 205 colon
ACHN renal = test system: ACHN renal
SNB-19 CNS = test system: SNB-19 CNS
UACC-257 melanoma = test system: UACC-257 melanoma
SF-268 CNS = test system: SF-268 CNS
OVCAR-4 ovarian = test system: OVCAR-4 ovarian
SK-OV-3 ovarian = test system: SK-OV-3 ovarian
DU-145 prostate = test system: DU-145 prostate
EKVX NSCLC = test system: EKVX NSCLC
MALME-3M melanoma = test system: MALME-3M melanoma
OVCAR-8 ovarian = test system: OVCAR-8 ovarian
SF-295 CNS = test system: SF-295 CNS
KM12 colon = test system: KM12 colon
NCI-H522 lung = test system: NCI-H522 lung
HT29 colon = test system: HT29 colon
NCI-H460 NSCLC = test system: NCI-H460 NSCLC
PC-3 prostate = test system: PC-3 prostate
RPMI-8226 leukemia = test system: RPMI-8226 leukemia
MDA-MB-468 breast = test system: MDA-MB-468 breast
MCF7 breast = test system: MCF7 breast
U251 glioblastoma = test system: U251 glioblastoma
SN12C renal = test system: SN12C renal
UACC-62 melanoma = test system: UACC-62 melanoma
NCI-H322M lung = test system: NCI-H322M lung
K-562 leukemia = test system: K-562 leukemia
M14 melanoma = test system: M14 melanoma
OVCAR-5 ovarian = test system: OVCAR-5 ovarian
MDA-MB-231 breast = test system: MDA-MB-231 breast
MDA-MB-435 melanoma = test system: MDA-MB-435 melanoma
SK-MEL-5 melanoma = test system: SK-MEL-5 melanoma
SW-620 colon = test system: SW-620 colon
HOP-62 NSCLC = test system: HOP-62 NSCLC
HL-60(TB) leukemia = test system: HL-60(TB) leukemia
OVCAR-3 ovarian = test system: OVCAR-3 ovarian
UO-31 renal = test system: UO-31 renal
A498 renal = test system: A498 renal
CCRF-CEM leukemia = test system: CCRF-CEM leukemia
A549 NSCLC = test system: A549 NSCLC
HOP-92 NSCLC = test system: HOP-92 NSCLC
IGROV1 ovarian = test system: IGROV1 ovarian
SR leukemia = test system: SR leukemia
SNB-75 CNS = test system: SNB-75 CNS
BT-549 breast = test system: BT-549 breast
LOX IMVI melanoma = test system: LOX IMVI melanoma
786-0 renal = test system: 786-0 renal
SK-MEL-28 melanoma = test system: SK-MEL-28 melanoma
HCT-15 colon = test system: HCT-15 colon
TK-10 renal = test system: TK-10 renal
NCI-H23 lung = test system: NCI-H23 lung
HCC-2998 colon = test system: HCC-2998 colon
NCI-H226 lung = test system: NCI-H226 lung
MOLT-4 leukemia = test system: MOLT-4 leukemia
CAKI-1 renal = test system: CAKI-1 renal
SF-539 CNS = test system: SF-539 CNS

Cn1cncc1[C@@](N)(c1ccc(Cl)cc1)c1ccc2c(c1)c(-c1cccc(Cl)c1)cc(=O)n2C
GI50 (NCI/ADR-RES ovarian): 1.62 µM | TGI (NCI/ADR-RES ovarian): 5.51 µM | GI50 (HS 578T breast): 1.46 µM | TGI (HS 578T breast): 4.62 µM | GI50 (T-47D breast): 0.0645 µM | TGI (T-47D breast): 3.67 µM | GI50 (RXF 393 renal): 0.472 µM | TGI (RXF 393 renal): 10.1 µM | GI50 (COLO 205 colon): 1.23 µM | TGI (COLO 205 colon): 3.77 µM | GI50 (ACHN renal): 1.28 µM | TGI (ACHN renal): 5.31 µM | GI50 (SNB-19 CNS): 2.33 µM | TGI (SNB-19 CNS): 13.2 µM | GI50 (UACC-257 melanoma): 1.38 µM | TGI (UACC-257 melanoma): 4.88 µM | GI50 (SF-268 CNS): 1.78 µM | TGI (SF-268 CNS): 11.4 µM | GI50 (OVCAR-4 ovarian): 1.13 µM | TGI (OVCAR-4 ovarian): 5.26 µM | GI50 (SK-OV-3 ovarian): 1.26 µM | TGI (SK-OV-3 ovarian): 8.17 µM | GI50 (DU-145 prostate): 2.4 µM | TGI (DU-145 prostate): 12.1 µM | GI50 (EKVX NSCLC): 1.52 µM | TGI (EKVX NSCLC): 6.02 µM | GI50 (MALME-3M melanoma): 0.141 µM | TGI (MALME-3M melanoma): 2.05 µM | GI50 (OVCAR-8 ovarian): 2.41 µM | TGI (OVCAR-8 ovarian): 12.3 µM | GI50 (SF-295 CNS): 0.463 µM | TGI (SF-295 CNS): 2.78 µM | GI50 (KM12 colon): 0.186 µM | TGI (KM12 colon): 2.31 µM | GI50 (NCI-H522 lung): 1.1 µM | TGI (NCI-H522 lung): 3.85 µM | GI50 (HT29 colon): 1.38 µM | TGI (HT29 colon): 3.62 µM | GI50 (NCI-H460 NSCLC): 0.391 µM | TGI (NCI-H460 NSCLC): 6.17 µM | GI50 (PC-3 prostate): 1.42 µM | TGI (PC-3 prostate): 6.97 µM | GI50 (RPMI-8226 leukemia): 0.0111 µM | TGI (RPMI-8226 leukemia): 0.218 µM | GI50 (MDA-MB-468 breast): 0.0235 µM | TGI (MDA-MB-468 breast): 1.83 µM | GI50 (MCF7 breast): 1.08 µM | TGI (MCF7 breast): 3.66 µM | GI50 (U251 glioblastoma): 1.11 µM | TGI (U251 glioblastoma): 12.6 µM | GI50 (SN12C renal): 0.179 µM | TGI (SN12C renal): 5.39 µM | GI50 (UACC-62 melanoma): 0.173 µM | TGI (UACC-62 melanoma): 2.75 µM | GI50 (NCI-H322M lung): 2.06 µM | TGI (NCI-H322M lung): 15.8 µM | GI50 (K-562 leukemia): 0.2 µM | TGI (K-562 leukemia): 2.05 µM | GI50 (M14 melanoma): 0.022 µM | TGI (M14 melanoma): 2.21 µM | GI50 (OVCAR-5 ovarian): 2.49 µM | TGI (OVCAR-5 ovarian): 12.2 µM | GI50 (MDA-MB-231 breast): 1.52 µM | TGI (MDA-MB-231 breast): 8.3 µM | GI50 (MDA-MB-435 melanoma): 0.189 µM | TGI (MDA-MB-435 melanoma): 1.51 µM | GI50 (SK-MEL-5 melanoma): 0.313 µM | TGI (SK-MEL-5 melanoma): 2.13 µM | GI50 (SW-620 colon): 1.36 µM | TGI (SW-620 colon): 4.41 µM | GI50 (HOP-62 NSCLC): 1.9 µM | TGI (HOP-62 NSCLC): 8.68 µM | GI50 (HL-60(TB) leukemia): < 0.01 µM | TGI (HL-60(TB) leukemia): 1.28 µM | GI50 (OVCAR-3 ovarian): 1.25 µM | TGI (OVCAR-3 ovarian): 3.77 µM | GI50 (UO-31 renal): 0.708 µM | TGI (UO-31 renal): 9.77 µM | GI50 (A498 renal): 0.0746 µM | TGI (A498 renal): 4.04 µM | GI50 (CCRF-CEM leukemia): < 0.01 µM | TGI (CCRF-CEM leukemia): 1.25 µM | GI50 (A549 NSCLC): 1.64 µM | TGI (A549 NSCLC): 11.1 µM | GI50 (HOP-92 NSCLC): 0.271 µM | TGI (HOP-92 NSCLC): 3.62 µM | GI50 (IGROV1 ovarian): 1.56 µM | TGI (IGROV1 ovarian): 4.99 µM | GI50 (SR leukemia): 0.0129 µM | TGI (SR leukemia): 0.194 µM | GI50 (SNB-75 CNS): 1.35 µM | TGI (SNB-75 CNS): 4.96 µM | GI50 (BT-549 breast): 1.34 µM | TGI (BT-549 breast): 4.32 µM | GI50 (LOX IMVI melanoma): 1.13 µM | TGI (LOX IMVI melanoma): 3.31 µM | GI50 ([…]-0 renal): 1.16 µM | TGI (786-0 renal): 8.76 µM | GI50 (SK-MEL-28 melanoma): 1.37 µM | TGI (SK-MEL-28 melanoma): 6.44 µM | GI50 (HCT-15 colon): 0.884 µM | TGI (HCT-15 colon): 5.18 µM | GI50 (TK-10 renal): 1.75 µM | TGI (TK-10 renal): 6.98 µM | GI50 (NCI-H23 lung): 1.51 µM | TGI (NCI-H23 lung): 4.81 µM | GI50 (HCC-2998 colon): 1.27 µM | TGI (HCC-2998 colon): 3.23 µM | GI50 (NCI-H226 lung): 1.08 µM | TGI (NCI-H226 lung): 6.96 µM | GI50 (MOLT-4 leukemia): < 0.01 µM | TGI (MOLT-4 leukemia): 0.0579 µM | GI50 (CAKI-1 renal): 2.11 µM | TGI (CAKI-1 renal): 11.9 µM | GI50 (SF-539 CNS): 1.21 µM | TGI (SF-539 CNS): 4.33 µM
